Laboratory results taken from the supplement of paper PMC8967900.

How the values were obtained:
Assay in all cases: selective drug sensitivity score (sDSS, relative to normal bone marrow) (sDSS (score)); higher = more potent and effective on the cell line relative to normal bone marrow cells
Settings in all cases: 72 h
COG-LL-355h = system: COG-LL-355h
SEM cells = system: SEM cells
KARPAS-45 = system: KARPAS-45
MHH-CALL-2 = system: MHH-CALL-2
KASUMI-10 = system: KASUMI-10
KASUMI-2 = system: KASUMI-2
MHH-CALL-4 = system: MHH-CALL-4
TANOUE = system: TANOUE
PF-382 = system: PF-382
CCRF-CEM = system: CCRF-CEM
SUP-B15 = system: SUP-B15
NALM-6 = system: NALM-6
TMD5 = system: TMD5
NALM-16 = system: NALM-16
NALL-1 = system: NALL-1
RPMI-8402 = system: RPMI-8402
ALL-SIL = system: ALL-SIL
COG-LL-319h = system: COG-LL-319h
697 = system: 697
P30-OHKUBO = system: P30-OHKUBO
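Further: ALL cell lines in 384-well plates, five doses spanning 10,000-fold, each plate scaled between vehicle and 100 µmol/L benzalkonium chloride controls, sDSS an adapted area-under-curve metric.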

NC[C@@](O)(c1ccc(Cl)cc1)c1ccc(-c2cn[nH]c2)cc1 (top concentration 10000 nM)
selective drug sensitivity score (COG-LL-355h): 3.28
selective drug sensitivity score (SEM cells): 6.58
selective drug sensitivity score (KARPAS-45): 2.78
selective drug sensitivity score (MHH-CALL-2): 2.58
selective drug sensitivity score (KASUMI-10): -1.22
selective drug sensitivity score (KASUMI-2): 2.78
selective drug sensitivity score (MHH-CALL-4): 1.78
selective drug sensitivity score (TANOUE): -1.22
selective drug sensitivity score (PF-382): 1.28
selective drug sensitivity score (CCRF-CEM): 3.88
selective drug sensitivity score (SUP-B15): 6.78
selective drug sensitivity score (NALM-6): 1.28
selective drug sensitivity score (TMD5): 4.98
selective drug sensitivity score (NALM-16): -1.22
selective drug sensitivity score (NALL-1): -1.22
selective drug sensitivity score (RPMI-8402): 3.28
selective drug sensitivity score (ALL-SIL): -1.22
selective drug sensitivity score (COG-LL-319h): 1.48
selective drug sensitivity score 697: 9.78
selective drug sensitivity score (P30-OHKUBO): 3.68

CC1(COc2ccc3c(c2)ncn3-c2ccc3cccc(N4CCC(N)CC4)c3n2)COC1 [Crenolanib] (top concentration 10000 nM)
selective drug sensitivity score (COG-LL-355h): 0.48
selective drug sensitivity score (SEM cells): 13.9
selective drug sensitivity score (KARPAS-45): 1.28
selective drug sensitivity score (MHH-CALL-2): 3.28
selective drug sensitivity score (KASUMI-10): 12.9
selective drug sensitivity score (KASUMI-2): -5.22
selective drug sensitivity score (MHH-CALL-4): 0.68
selective drug sensitivity score (TANOUE): -9.32
selective drug sensitivity score (PF-382): 0.08
selective drug sensitivity score (CCRF-CEM): -1.82
selective drug sensitivity score (SUP-B15): 0.88
selective drug sensitivity score (NALM-6): -4.02
selective drug sensitivity score (TMD5): -0.02
selective drug sensitivity score (NALM-16): -7.62
selective drug sensitivity score (NALL-1): 1.58
selective drug sensitivity score (RPMI-8402): -2.72
selective drug sensitivity score (ALL-SIL): 0.28
selective drug sensitivity score (COG-LL-319h): -3.92
selective drug sensitivity score 697: 3.28
selective drug sensitivity score (P30-OHKUBO): -2.72

COCCNCc1ccc(-c2cc3nccc(Oc4ccc(NC(=S)NC(=O)Cc5ccc(F)cc5)cc4F)c3s2)nc1 [Glesatinib] (top concentration 2500 nM)
selective drug sensitivity score (COG-LL-355h): 0.54
selective drug sensitivity score (SEM cells): 14.1
selective drug sensitivity score (KARPAS-45): 2.34
selective drug sensitivity score (MHH-CALL-2): 0.94
selective drug sensitivity score (KASUMI-10): 8.74
selective drug sensitivity score (KASUMI-2): 4.74
selective drug sensitivity score (MHH-CALL-4): 0.14
selective drug sensitivity score (TANOUE): -1.96
selective drug sensitivity score (PF-382): -0.56
selective drug sensitivity score (CCRF-CEM): -1.06
selective drug sensitivity score (SUP-B15): 7.24
selective drug sensitivity score (NALM-6): -1.96
selective drug sensitivity score (TMD5): 2.74
selective drug sensitivity score (NALM-16): 0.34
selective drug sensitivity score (NALL-1): 2.94
selective drug sensitivity score (RPMI-8402): 0.54
selective drug sensitivity score (ALL-SIL): 10.4
selective drug sensitivity score (COG-LL-319h): 3.74
selective drug sensitivity score 697: 0.04
selective drug sensitivity score (P30-OHKUBO): -0.76

O=C(NC1CCNCC1)c1n[nH]cc1NC(=O)c1c(Cl)cccc1Cl [AT7519] (top concentration 10000 nM)
selective drug sensitivity score (COG-LL-355h): 2.74
selective drug sensitivity score (SEM cells): -4.76
selective drug sensitivity score (KARPAS-45): -4.16
selective drug sensitivity score (MHH-CALL-2): -2.06
selective drug sensitivity score (KASUMI-10): -2.76
selective drug sensitivity score (KASUMI-2): -4.46
selective drug sensitivity score (MHH-CALL-4): -1.26
selective drug sensitivity score (TANOUE): -17.8
selective drug sensitivity score (PF-382): -7.16
selective drug sensitivity score (CCRF-CEM): -3.46
selective drug sensitivity score (SUP-B15): -4.56
selective drug sensitivity score (NALM-6): -2.76
selective drug sensitivity score (TMD5): -4.16
selective drug sensitivity score (NALM-16): -8.16
selective drug sensitivity score (NALL-1): -8.16
selective drug sensitivity score (RPMI-8402): -7.46
selective drug sensitivity score (ALL-SIL): -6.06
selective drug sensitivity score (COG-LL-319h): -4.26
selective drug sensitivity score 697: -2.46
selective drug sensitivity score (P30-OHKUBO): -2.96

CNC(=O)c1cc(Oc2ccc(NC(=O)Nc3ccc(Cl)c(C(F)(F)F)c3)cc2)ccn1 [Sorafenib] (top concentration 1000 nM)
selective drug sensitivity score (COG-LL-355h): 0
selective drug sensitivity score (SEM cells): 15.1
selective drug sensitivity score (KARPAS-45): 0.5
selective drug sensitivity score (MHH-CALL-2): 0.3
selective drug sensitivity score (KASUMI-10): 12.2
selective drug sensitivity score (KASUMI-2): 0
selective drug sensitivity score (MHH-CALL-4): 0
selective drug sensitivity score (TANOUE): 0
selective drug sensitivity score (PF-382): 1.3
selective drug sensitivity score (CCRF-CEM): 0
selective drug sensitivity score (SUP-B15): 0
selective drug sensitivity score (NALM-6): 0.2
selective drug sensitivity score (TMD5): 0
selective drug sensitivity score (NALM-16): 0
selective drug sensitivity score (NALL-1): 0
selective drug sensitivity score (RPMI-8402): 0
selective drug sensitivity score (ALL-SIL): 0
selective drug sensitivity score (COG-LL-319h): 0
selective drug sensitivity score 697: 1.7
selective drug sensitivity score (P30-OHKUBO): 2.2

CC(C)c1cc(-c2n[nH]c(=O)n2-c2ccc3c(ccn3C)c2)c(O)cc1O [Ganetespib] (top concentration 1000 nM)
selective drug sensitivity score (COG-LL-355h): 1.34
selective drug sensitivity score (SEM cells): 1.24
selective drug sensitivity score (KARPAS-45): -0.26
selective drug sensitivity score (MHH-CALL-2): -1.36
selective drug sensitivity score (KASUMI-10): 4.64
selective drug sensitivity score (KASUMI-2): 6.04
selective drug sensitivity score (MHH-CALL-4): -0.56
selective drug sensitivity score (TANOUE): -8.36
selective drug sensitivity score (PF-382): 1.64
selective drug sensitivity score (CCRF-CEM): 2.04
selective drug sensitivity score (SUP-B15): 1.74
selective drug sensitivity score (NALM-6): 2.34
selective drug sensitivity score (TMD5): -5.36
selective drug sensitivity score (NALM-16): -2.76
selective drug sensitivity score (NALL-1): -1.86
selective drug sensitivity score (RPMI-8402): -1.66
selective drug sensitivity score (ALL-SIL): 1.14
selective drug sensitivity score (COG-LL-319h): 1.14
selective drug sensitivity score 697: 1.24
selective drug sensitivity score (P30-OHKUBO): 2.24

Cc1cc(C(C)Nc2ccccc2)c2nc(N3CCOCC3)cc(=O)n2c1 (stereo not given) [TGX-221] (top concentration 10000 nM)
selective drug sensitivity score (COG-LL-355h): 2.96
selective drug sensitivity score (SEM cells): 5.46
selective drug sensitivity score (KARPAS-45): 1.46
selective drug sensitivity score (MHH-CALL-2): 5.16
selective drug sensitivity score (KASUMI-10): -1.64
selective drug sensitivity score (KASUMI-2): -1.64
selective drug sensitivity score (MHH-CALL-4): -1.44
selective drug sensitivity score (TANOUE): -0.94
selective drug sensitivity score (PF-382): -0.84
selective drug sensitivity score (CCRF-CEM): -0.54
selective drug sensitivity score (SUP-B15): 0.36
selective drug sensitivity score (NALM-6): 3.56
selective drug sensitivity score (TMD5): -1.64
selective drug sensitivity score (NALM-16): -1.64
selective drug sensitivity score (NALL-1): -0.44
selective drug sensitivity score (RPMI-8402): -0.04
selective drug sensitivity score (ALL-SIL): -1.64
selective drug sensitivity score (COG-LL-319h): -1.64
selective drug sensitivity score 697: 0.16
selective drug sensitivity score (P30-OHKUBO): 3.36

CNc1nc(-c2ccc3c(N)n[nH]c3c2)cc(N2C[C@@H](C(=O)NC3CCCCC3)CC[C@H]2C)n1 (top concentration 10000 nM)
selective drug sensitivity score (COG-LL-355h): 6.66
selective drug sensitivity score (SEM cells): 3.26
selective drug sensitivity score (KARPAS-45): -0.14
selective drug sensitivity score (MHH-CALL-2): 6.16
selective drug sensitivity score (KASUMI-10): 0.46
selective drug sensitivity score (KASUMI-2): 7.26
selective drug sensitivity score (MHH-CALL-4): 3.46
selective drug sensitivity score (TANOUE): 0.16
selective drug sensitivity score (PF-382): 2.76
selective drug sensitivity score (CCRF-CEM): 1.36
selective drug sensitivity score (SUP-B15): 9.96
selective drug sensitivity score (NALM-6): 2.96
selective drug sensitivity score (TMD5): 2.16
selective drug sensitivity score (NALM-16): 3.86
selective drug sensitivity score (NALL-1): -0.14
selective drug sensitivity score (RPMI-8402): -0.14
selective drug sensitivity score (ALL-SIL): 1.36
selective drug sensitivity score (COG-LL-319h): 2.96
selective drug sensitivity score 697: 9.06
selective drug sensitivity score (P30-OHKUBO): 7.86

NCC(=O)Nc1ccc(-n2nc(C(F)(F)F)cc2-c2ccc3c(ccc4ccccc43)c2)cc1 (top concentration 25000 nM)
selective drug sensitivity score (COG-LL-355h): -0.2
selective drug sensitivity score (SEM cells): 8
selective drug sensitivity score (KARPAS-45): 6.9
selective drug sensitivity score (MHH-CALL-2): 7.1
selective drug sensitivity score (KASUMI-10): 0
selective drug sensitivity score (KASUMI-2): 0.1
selective drug sensitivity score (MHH-CALL-4): 2.9
selective drug sensitivity score (TANOUE): 4.7
selective drug sensitivity score (PF-382): 8
selective drug sensitivity score (CCRF-CEM): 7.9
selective drug sensitivity score (SUP-B15): 7.5
selective drug sensitivity score (NALM-6): 13.3
selective drug sensitivity score (TMD5): -0.2
selective drug sensitivity score (NALM-16): 5.4
selective drug sensitivity score (NALL-1): 5
selective drug sensitivity score (RPMI-8402): 13
selective drug sensitivity score (ALL-SIL): 8.4
selective drug sensitivity score (COG-LL-319h): 8
selective drug sensitivity score 697: 10.8
selective drug sensitivity score (P30-OHKUBO): 7.6
